Test results from patent publication US20240150298A1, “ANTIBACTERIAL COMPOUNDS” (Blacksmith Medicines, Inc., priority 2021, published 2024).
pIC50: −log10 of the molar value. Values after ≈ are worked out from the molar mass of the structure shown.

How the values were obtained:
P. aeruginosa 209 PAO1 = assay: Bacterial susceptibility testing, MIC by broth microdilution (CLSI); type: cell-based; details: Pseudomonas aeruginosa, PAO1, broth microdilution, 35° C., 18-24 h; read-out: MIC P. aeruginosa 209 PAO1
In short: (§1)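 Broth microdilution per CLSI in cation-adjusted Mueller-Hinton broth, inoculum 3×10^5–7×10^5 CFU/mL, 2-fold serial drug dilutions in DMSO. Incubated in ambient air at 35° C for 18-24 h. MIC taken as lowest concentration preventing visible growth (OD600 nm<0.05).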

P. aeruginosa ATCC27835 = assay: as above; type: cell-based; details: Pseudomonas aeruginosa, ATCC27835, broth microdilution, 35° C., 18-24 h; read-out: MIC P. aeruginosa ATCC27835
In short: as §1

E. coli ATCC25922 = assay: as above; type: cell-based; details: Escherichia coli, ATCC25922, broth microdilution, 35° C., 18-24 h; read-out: MIC E. coli ATCC25922
In short: as §1

K. pneumoniae ATCC13883 = assay: as above; type: cell-based; details: Klebsiella pneumoniae, ATCC13883, broth microdilution, 35° C., 18-24 h; read-out: MIC K. pneumoniae ATCC13883
In short: as §1

P. aeruginosa LpxC = target: T1, P. aeruginosa LpxC (Pseudomonas aeruginosa, UniProt P47205); assay: LpxC Binding Assay (Rapid Fire MS assay); type: biochemical
T1 sequence (P47205 1-303): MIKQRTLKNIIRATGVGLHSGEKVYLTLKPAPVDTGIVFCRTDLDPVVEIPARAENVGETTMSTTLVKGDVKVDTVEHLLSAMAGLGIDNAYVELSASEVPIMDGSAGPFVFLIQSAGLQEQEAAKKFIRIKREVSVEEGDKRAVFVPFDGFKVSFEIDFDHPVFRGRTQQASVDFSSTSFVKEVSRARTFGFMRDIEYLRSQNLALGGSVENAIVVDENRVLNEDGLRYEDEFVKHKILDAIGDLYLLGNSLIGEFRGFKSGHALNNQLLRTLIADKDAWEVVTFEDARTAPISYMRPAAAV
Method: (§2) IC50 values against E. coli and P. aeruginosa LpxC are determined using a Rapid Fire MS assay as previously described J. Med. Chem. 2012, 55, 1662-1670.

E. coli LpxC = E. coli LpxC (Escherichia coli, UniProt P0A725); assay: LpxC Binding Assay (Rapid Fire MS assay); type: biochemical
Method: as §2

K. pneumoniae LpxC = K. pneumoniae LpxC (Klebsiella pneumoniae subsp. pneumoniae, UniProt A6T4N9); assay: LpxC Binding Assay (Rapid Fire MS assay); type: biochemical
Sequence of K. pneumoniae LpxC (A6T4N9 whole entry): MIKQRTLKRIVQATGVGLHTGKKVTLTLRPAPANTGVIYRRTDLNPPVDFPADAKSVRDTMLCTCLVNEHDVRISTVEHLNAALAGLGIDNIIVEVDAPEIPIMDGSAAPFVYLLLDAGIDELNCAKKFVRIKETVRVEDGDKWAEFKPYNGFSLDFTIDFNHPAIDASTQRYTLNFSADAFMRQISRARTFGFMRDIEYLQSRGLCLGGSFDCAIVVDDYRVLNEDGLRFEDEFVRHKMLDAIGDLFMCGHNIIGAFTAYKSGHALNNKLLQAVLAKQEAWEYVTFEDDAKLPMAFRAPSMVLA

Sequence of E. coli LpxC (P0A725 whole entry): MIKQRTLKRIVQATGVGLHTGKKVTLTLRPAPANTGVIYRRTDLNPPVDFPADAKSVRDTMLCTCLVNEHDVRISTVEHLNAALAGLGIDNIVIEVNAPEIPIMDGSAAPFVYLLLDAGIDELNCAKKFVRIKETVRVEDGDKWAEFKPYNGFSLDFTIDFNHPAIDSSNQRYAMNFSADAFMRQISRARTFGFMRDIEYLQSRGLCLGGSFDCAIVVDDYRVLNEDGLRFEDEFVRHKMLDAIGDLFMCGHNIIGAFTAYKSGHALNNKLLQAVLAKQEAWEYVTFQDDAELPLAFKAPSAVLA

Compound | MIC (P. aeruginosa 209 PAO1) [µg/mL] | MIC (P. aeruginosa ATCC27835) [µg/mL] | MIC (E. coli ATCC25922) [µg/mL] | MIC (K. pneumoniae ATCC13883) [µg/mL] | pIC50 (P. aeruginosa LpxC) | pIC50 (E. coli LpxC) | pIC50 (K. pneumoniae LpxC)
C[C@H](O)c1nccn1[C@@H](/C=C(\F)c1ccc(-c2ccc(OCC(N)CO)cc2)cc1)CO (mixture of isomers) [Compound 11] | 1 (≈ 2.26 µM) | 2 (≈ 4.53 µM) | 4 (≈ 9.06 µM) | 16 (≈ 36.2 µM) | 7.50 | 8.57 | 8.40
C[C@H](O)c1nccn1[C@@H](/C=C/c1ccc(-c2ccc(OCC(N)CO)cc2)cc1)CCO (mixture of isomers) [Compound 19, (3R,E)-5-(4′-(2-amino-3-hydroxypropoxy)-[1,1′-biphenyl]-4-yl)-3-(2-((S)-1-hydroxyethyl)-1H-imidazol-1-yl)pent-4-en-1-ol] | 4 (≈ 9.14 µM) | 4 (≈ 9.14 µM) | 8 (≈ 18.3 µM) | 64 (≈ 146 µM) | 7.21 | 8.29 | 8.10
COC(CN)COc1ccc(-c2ccc(/C=C/[C@@H](CO)n3ccnc3[C@H](C)O)cc2)cc1 (mixture of isomers) [Compound 27, (2S,E)-4-(4′-(3-amino-2-methoxypropoxy)-[1,1′-biphenyl]-4-yl)-2-(2-((S)-1-hydroxyethyl)-1H-imidazol-1-yl)but-3-en-1-ol] | 4 (≈ 9.14 µM) | 4 (≈ 9.14 µM) | 8 (≈ 18.3 µM) | 32 (≈ 73.1 µM) | 7.39 | 8.54 | 8.21
C[C@H](O)c1nccn1[C@@H](/C=C(\F)c1ccc(-c2ccc(OCC(O)CN)cc2)cc1)CO (single isomer, unassigned) [Compound 30, (S,Z)-4-(4′-((R)-3-amino-2-hydroxypropoxy)-[1,1′-biphenyl]-4-yl)-4-fluoro-2-(2-((S)-1-hydroxyethyl)-1H-imidazol-1-yl)but-3-en-1-ol; or (S,Z)-4-(4′-((S)-3-amino-2-hydroxypropoxy)-[1,1′-biphenyl]-4-yl)-4-fluoro-2-(2-((S)-1-hydroxyethyl)-1H-imidazol-1-yl)but-3-en-1-ol] | 8 (≈ 18.1 µM) | 8 (≈ 18.1 µM) | 16 (≈ 36.2 µM) | 32 (≈ 72.5 µM) | 7.10 | 8.30 | 8.12
C[C@H](O)c1nccn1[C@@H](/C=C/c1ccc(-c2ccc(OC3CCN(CCO)CC3)cc2)cc1)CO [Compound 17, (S,E)-2-(2-((S)-1-hydroxyethyl)-1H-imidazol-1-yl)-4-(4′-((1-(2-hydroxyethyl)piperidin-4-yl)oxy)-[1,1′-biphenyl]-4-yl)but-3-en-1-ol] | 4 (≈ 8.38 µM) | 4 (≈ 8.38 µM) | 4 (≈ 8.38 µM) | 16 (≈ 33.5 µM) | 7.18 | 8.38 | 8.20
C[C@H](O)c1nccn1[C@@H](/C=C/c1ccc(-c2ccc(OC3CCN(CCO)CC3)cc2)cc1)CCO [Compound 18, (R,E)-3-(2-((S)-1-hydroxyethyl)-1H-imidazol-1-yl)-5-(4′-((1-(2-hydroxyethyl)piperidin-4-yl)oxy)-[1,1′-biphenyl]-4-yl)pent-4-en-1-ol] | 4 (≈ 8.14 µM) | 4 (≈ 8.14 µM) | 8 (≈ 16.3 µM) | 16 (≈ 32.5 µM) | 7.30 | 8.44 | 8.27
C[C@H](O)c1nccn1[C@@H](/C=C/c1ccc(-c2ccc(OC[C@@H](O)CO)cc2)cc1)CO [Compound 24, (S)-3-((4′-((S,E)-4-hydroxy-3-(2-((S)-1-hydroxyethyl)-1H-imidazol-1-yl)but-1-en-1-yl)-[1,1′-biphenyl]-4-yl)oxy)propane-1,2-diol] | 2 (≈ 4.71 µM) | 2 (≈ 4.71 µM) | 2 (≈ 4.71 µM) | 8 (≈ 18.8 µM) | 7.76 | 9.30 | 8.96
C[C@H](O)c1nccn1[C@@H](/C=C/c1ccc(-c2ccc(OC[C@@H](O)CN(C)C)cc2)cc1)CO [Compound 26, (S,E)-4-(4′-((S)-3-(dimethylamino)-2-hydroxypropoxy)-[1,1′-biphenyl]-4-yl)-2-(2-((S)-1-hydroxyethyl)-1H-imidazol-1-yl)but-3-en-1-ol] | 4 (≈ 8.86 µM) | 8 (≈ 17.7 µM) |  | 2 (≈ 4.43 µM) | 7.76 | 9.22 | 8.85
C[C@H](O)c1nccn1[C@@H](/C=C/c1ccc(-c2ccc(OCCN(CCO)CCO)cc2)cc1)CO [Compound 28, 2,2′-((2-((4′—((S,E)-4-hydroxy-3-(2-((S)-1-hydroxyethyl)-1H-imidazol-1-yl)but-1-en-1-yl)-[1,1′-biphenyl]-4-yl)oxy)ethyl)azanediyl)bis(ethan-1-ol)] | 4 (≈ 8.31 µM) | 4 (≈ 8.31 µM) | 4 (≈ 8.31 µM) | 16 (≈ 33.2 µM) | 7.43 | 8.59 | 8.37
C[C@H](O)c1nccn1[C@@H](/C=C/c1ccc(-c2ccc(OC[C@H](O)CN)cc2)cc1)CO [Compound 29, (S,E)-4-(4′-((R)-3-amino-2-hydroxypropoxy)-[1,1′-biphenyl]-4-yl)-2-(2-((S)-1-hydroxyethyl)-1H-imidazol-1-yl)but-3-en-1-ol] | 8 (≈ 18.9 µM) | 4 (≈ 9.44 µM) | 32 (≈ 75.6 µM) | 64 (≈ 151 µM) | 6.92 | 8.23 | 8.04
C[C@H](O)c1nccn1[C@@H](/C=C/c1ccc(-c2ccc(OC[C@@H](O)CO)cc2F)cc1)CO [Compound 32, (S)-3-((2-fluoro-4′-((S,E)-4-hydroxy-3-(2-((S)-1-hydroxyethyl)-1H-imidazol-1-yl)but-1-en-1-yl)-[1,1′-biphenyl]-4-yl)oxy)propane-1,2-diol] | 4 (≈ 9.04 µM) | 4 (≈ 9.04 µM) | 2 (≈ 4.52 µM) | 8 (≈ 18.1 µM) | 7.87 | 9.00 | 8.74
C[C@H](O)c1nccn1[C@@H](/C=C/c1ccc(-c2ccc(OCC(CO)CO)cc2)cc1)CO [Compound 33, 2-(((4′-((S,E)-4-hydroxy-3-(2-((S)-1-hydroxyethyl)-1H-imidazol-1-yl)but-1-en-1-yl)-[1,1′-biphenyl]-4-yl)oxy)methyl)propane-1,3-diol] | 2 (≈ 4.56 µM) | 4 (≈ 9.12 µM) |  | 8 (≈ 18.2 µM) | 7.92 | 9.00 | 8.80
C[C@H](O)c1nccn1[C@@H](/C=C/c1ccc(-c2ccc(C3CC(NCCC#N)C3)cc2)cc1)CO (stereo partly drawn) [Compound 37, 3-((3-(4′-((S,E)-4-hydroxy-3-(2-((S)-1-hydroxyethyl)-1H-imidazol-1-yl)but-1-en-1-yl)-[1,1′-biphenyl]-4-yl)cyclobutyl)amino)propanenitrile] | 2 (≈ 4.38 µM) | 4 (≈ 8.76 µM) |  | 0.5 (≈ 1.1 µM) | 7.82 | > 9.30 | 9.15
C[C@H](O)c1nccn1[C@@H](/C=C/c1ccc(-c2ccc(C3CC(N4CC(O)C4)C3)cc2)cc1)CO (stereo partly drawn) [Compound 38, 1-(3-(4′-((S,E)-4-hydroxy-3-(2-((S)-1-hydroxyethyl)-1H-imidazol-1-yl)but-1-en-1-yl)-[1,1′-biphenyl]-4-yl)cyclobutyl)azetidin-3-ol] | 2 (≈ 4.35 µM) | 2 (≈ 4.35 µM) |  | 2 (≈ 4.35 µM) | 7.56 | 9.05 | 8.80
C[C@H](O)c1nccn1[C@@H](/C=C/c1ccc(-c2ccc(C3CC(O)C3)cc2)cc1)CO (stereo partly drawn) [Compound 39, 3-(4′-((S,E)-4-hydroxy-3-(2-((S)-1-hydroxyethyl)-1H-imidazol-1-yl)but-1-en-1-yl)-[1,1′-biphenyl]-4-yl)cyclobutan-1-ol] | 1 (≈ 2.47 µM) | 4 (≈ 9.89 µM) |  | 0.5 (≈ 1.24 µM) | 7.90 | > 9.30 | 9.22
